Experimental data reported in BindingDB's records for doi:10.1016/s0969-2126(98)00113-0 (University of Texas At Dallas, 1998).

What was measured:
[1] = biological target: Mitogen-activated protein kinase 14 (Homo sapiens, UniProt Q16539); assay: Kinase Inhibition Assay; details: pH 7.5; 37 °C
[2] = biological target: Mitogen-activated protein kinase 1 (Rattus norvegicus, UniProt P63086); assay: Kinase Inhibition Assay; details: pH 7.5; 37 °C
Sequence of Mitogen-activated protein kinase 1 (P63086 whole entry): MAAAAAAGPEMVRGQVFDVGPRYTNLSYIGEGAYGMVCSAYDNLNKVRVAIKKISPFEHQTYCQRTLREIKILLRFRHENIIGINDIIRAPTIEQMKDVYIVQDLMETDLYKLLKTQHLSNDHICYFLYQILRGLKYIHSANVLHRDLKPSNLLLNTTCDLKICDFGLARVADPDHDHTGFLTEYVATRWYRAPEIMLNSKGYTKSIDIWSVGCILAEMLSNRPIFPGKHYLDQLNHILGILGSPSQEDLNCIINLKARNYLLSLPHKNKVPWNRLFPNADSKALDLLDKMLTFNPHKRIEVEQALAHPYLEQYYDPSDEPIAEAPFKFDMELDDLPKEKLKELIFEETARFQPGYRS

Sequence of Mitogen-activated protein kinase 14 (Q16539 whole entry): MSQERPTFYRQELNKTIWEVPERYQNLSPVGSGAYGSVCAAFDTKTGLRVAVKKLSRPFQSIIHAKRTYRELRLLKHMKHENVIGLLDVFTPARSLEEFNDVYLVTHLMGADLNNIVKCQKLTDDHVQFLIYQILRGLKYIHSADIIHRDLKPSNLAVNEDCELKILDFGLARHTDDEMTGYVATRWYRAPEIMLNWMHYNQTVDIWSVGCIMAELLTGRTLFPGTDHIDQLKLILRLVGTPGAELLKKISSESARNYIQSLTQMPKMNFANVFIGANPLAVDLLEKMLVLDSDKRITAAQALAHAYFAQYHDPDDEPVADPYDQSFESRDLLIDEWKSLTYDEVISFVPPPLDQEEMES

IC50 [1] | SMILES | IC50 [2]
> 100 µM | Cn1cnc2c(NCc3ccccc3)nc(NCCO)nc21 [2,6,9-Trisubstituted purine deriv. 26] | 27 µM
 | C[S+]([O-])c1ccc(-c2nc(-c3ccncc3)c(-c3ccc(F)cc3)[nH]2)cc1 (stereo not drawn) [4-{4-(4-fluorophenyl)-2-[4-(methylsulfinyl)phenyl]-1H-imidazol-5-yl}pyridine] | > 1000 µM
